This experiment relates to Lymphoma 4 ip in BDF1 mice, median survival. The experiment is described as follows: NCI In Vivo Anticancer Drug Screen. Data for tumor model Lymphoma 4 (intraperitoneal) in B6D2F1 (BDF1) mice. To be noted: endpoint: median survival time, higher = longer survival. As to the method:
The antitumor activity of compounds was measured in mice bearing transplantable tumors. Survival or tumor size were measured and the results are expressed as the measurement made in the treated group (T) divided by the measurement made in the vehicle treated control group (C). The tumor model used in this assay is Lymphoma 4 (intraperitoneal) in B6D2F1 (BDF1) mice

[1] abbreviates: dose: 62.5 mg/kg/injection, schedule: Q01DX010 (ip), vehicle: saline.
The mark [2] stands for this setting: dose: 125.0 mg/kg/injection, schedule: Q01DX010 (ip), vehicle: saline.
The mark [3] stands for this setting: dose: 250.0 mg/kg/injection, schedule: Q01DX010 (ip), vehicle: saline.
The mark [4] stands for this setting: dose: 500.0 mg/kg/injection, schedule: Q01DX010 (ip), vehicle: saline.
Where [5] appears, read: dose: 3.13 mg/kg/injection, schedule: Q01DX010 (ip), vehicle: saline.
The mark [6] stands for this setting: dose: 6.25 mg/kg/injection, schedule: Q01DX010 (ip), vehicle: saline.
[7] abbreviates: dose: 12.5 mg/kg/injection, schedule: Q01DX010 (ip), vehicle: saline.
Setting [8] is: dose: 25.0 mg/kg/injection, schedule: Q01DX010 (ip), vehicle: saline.
Setting [9] is: dose: 7.5 mg/kg/injection, schedule: Q01DX010 (ip), vehicle: saline.
[10] abbreviates: dose: 15.0 mg/kg/injection, schedule: Q01DX010 (ip), vehicle: saline.
The mark [11] stands for this setting: dose: 30.0 mg/kg/injection, schedule: Q01DX010 (ip), vehicle: saline.
Where [12] appears, read: dose: 0.5 mg/kg/injection, schedule: Q01DX010 (ip), vehicle: saline.
Where [13] appears, read: dose: 10.0 mg/kg/injection, schedule: Q01DX010 (ip), vehicle: saline.
The mark [14] stands for this setting: dose: 20.0 mg/kg/injection, schedule: Q01DX010 (ip), vehicle: saline.
[15] abbreviates: dose: 1.25 mg/kg/injection, schedule: Q01DX010 (ip), vehicle: saline.
Setting [16] is: dose: 5.0 mg/kg/injection, schedule: Q01DX010 (ip), vehicle: saline.
Setting [17] is: dose: 1.0 mg/kg/injection, schedule: Q01DX010 (ip), vehicle: saline.
[18] abbreviates: dose: 2.0 mg/kg/injection, schedule: Q01DX010 (ip), vehicle: saline.
[19] abbreviates: dose: 4.0 mg/kg/injection, schedule: Q01DX010 (ip), vehicle: saline.
[20] abbreviates: dose: 8.0 mg/kg/injection, schedule: Q01DX010 (ip), vehicle: saline.
[21] abbreviates: dose: 16.0 mg/kg/injection, schedule: Q01DX010 (ip), vehicle: saline.
Where [22] appears, read: dose: 18.8 mg/kg/injection, schedule: Q01DX010 (ip), vehicle: saline.
The mark [23] stands for this setting: dose: 37.5 mg/kg/injection, schedule: Q01DX010 (ip), vehicle: saline.
The mark [24] stands for this setting: dose: 75.0 mg/kg/injection, schedule: Q01DX010 (ip), vehicle: saline.
Where [25] appears, read: dose: 31.3 mg/kg/injection, schedule: Q01DX010 (ip), vehicle: saline.
[26] abbreviates: dose: 15.6 mg/kg/injection, schedule: Q01DX010 (ip), vehicle: saline.
The mark [27] stands for this setting: dose: 50.0 mg/kg/injection, schedule: Q01DX010 (ip), vehicle: saline.
The mark [28] stands for this setting: dose: 100.0 mg/kg/injection, schedule: Q01DX010 (ip), vehicle: saline.
Setting [29] is: dose: 200.0 mg/kg/injection, schedule: Q01DX010 (ip), vehicle: saline.

Values joined by “and” are separate entries in the source; they are usually repeats but may differ in a detail not shown here. Equal entries are not always repeated. Toxic doses and inconclusive results are not listed. Starred links: 1 amine or outer side, 2 acyl side, 3 side chain; linkers in the order of their positions; H or OH if unused. Positions of bridges follow the written chain, without caps; N, C: chain ends. Non-standard residues stand in square brackets, D forms with d. Residues, ends and D or L forms follow the SMILES beside them. Chains are numbered I, II in the order given. Actinocin(9to1) = Cc1c2oc3c(C)ccc(C(=O)[*:1])c3nc-2c(C(=O)[*:2])c(N)c1=O; aThr = C[C@H](O)[C@H](N)C(=O)O; NMeV = CN[C@H](C(=O)O)C(C)C; Sar = CNCC(=O)O

Turning to `OCC1OC(n2cnc3c(Cl)ncnc32)C(O)C1O` (stereo not drawn), the T/C was 100 % of control and 103 % of control under setting [1]; 94 % of control and 103 % of control under setting [2]; 94 % of control and 106 % of control under setting [3]; 94 % of control and 100 % of control under setting [4].
As for `O=[n+]1c2c(n([O-])c3ccccc31)-c1cccc3cccc-2c13`, the T/C was 107 % of control under setting [5], 107 % of control under setting [6], 115 % of control under setting [7] and 100 % of control under setting [8].
With `Clc1ncnc2nc[nH]c12`, the T/C is 100 % of control and 102 % of control under setting [9]; 90 % of control and 94 % of control under setting [10]; 90 % of control and 105 % of control under setting [11]; 96 % of control and 100 % of control (dose: 60.0 mg/kg/injection, schedule: Q01DX010 (ip), vehicle: saline).
As to `Nc1nc(N)c2nc(CNc3ccc(C(=O)NC(CCC(=O)O)C(=O)O)cc3)cnc2n1` (stereo not drawn), the T/C is 96 % of control and 110 % of control (dose: 0.05 mg/kg/injection, schedule: Q01DX010 (ip), vehicle: other); 110 % of control and 114 % of control (dose: 0.1 mg/kg/injection, schedule: Q01DX010 (ip), vehicle: other); 116 % of control and 117 % of control (dose: 0.2 mg/kg/injection, schedule: Q01DX010 (ip), vehicle: other).
As for `CS(=O)(=O)OCCN(CCOS(C)(=O)=O)c1ccc(N=O)cc1`, the T/C under setting [12] is 123 % of control.
For `O=c1[nH]c(=O)n(C2CC(O)C(CO)O2)cc1F` (stereo not drawn), the T/C runs as follows: under setting [13], 103 % of control; under setting [14], 116 % of control and 123 % of control; (dose: 40.0 mg/kg/injection, schedule: Q01DX010 (ip), vehicle: saline) 119 % of control.
As for `N#[N+]c1cnc([O-])[nH]c1=O`, the T/C under setting [15] was 113 % of control, the T/C under setting [16] was 150 % of control and the T/C under setting [13] is 176 % of control.
Consider `CN(C)[C@@H]1C(=O)C(C(N)=O)=C(O)[C@@]2(O)C(=O)C3=C(O)c4c(O)cccc4C[C@H]3C[C@@H]12`, for which the T/C (dose: 3.75 mg/kg/injection, schedule: Q01DX010 (ip), vehicle: saline) was 114 % of control; the T/C under setting [9] was 107 % of control and 111 % of control; the T/C under setting [10] is 107 % of control; the T/C under setting [11] was 100 % of control and 107 % of control.
As for `COCCCNP(=S)(N1CC1)N1CC1`, the T/C under setting [12] was 93 % of control, the T/C under setting [17] was 100 % of control, the T/C under setting [18] was 113 % of control and the T/C under setting [19] is 116 % of control.
With `C[C@H]1C(=O)O[C@@H]2CCN3CC=C(COC(=O)[C@](C)(O)[C@@]1(C)O)[C@H]23`, the T/C is 94 % of control and 100 % of control under setting [5]; 93 % of control and 94 % of control under setting [6]; 94 % of control and 103 % of control under setting [7]; 91 % of control and 103 % of control under setting [8].
On to `Cc1c2oc3c(C)ccc(C(=O)N[C@@H]4C(=O)N[C@H](C(C)C)C(=O)N5CCC[C@H]5C(=O)N(C)CC(=O)N(C)[C@@H](C(C)C)C(=O)O[C@H]4C)c3nc-2c(C(=O)N[C@@H]2C(=O)N[C@H](C(C)C)C(=O)N3CCC[C@H]3C(=O)N(C)CC(=O)N(C)[C@@H](C(C)C)C(=O)O[C@H]2C)c(N)c1=O` (I: [aThr][dV]P[Sar][NMeV] / II: [aThr][dV]P[Sar][NMeV]; ester I:1-I:C, II:1-II:C; linker I:N-II:N via Actinocin(9to1)), for which the T/C is 114 % of control and 123 % of control (dose: 12.5 micrograms/kg/injection, schedule: Q01DX010 (ip), vehicle: other); 123 % of control (dose: 25.0 micrograms/kg/injection, schedule: Q01DX010 (ip), vehicle: other); 150 % of control and 179 % of control (dose: 50.0 micrograms/kg/injection, schedule: Q01DX010 (ip), vehicle: other); 194 % of control (dose: 100.0 micrograms/kg/injection, schedule: Q01DX010 (ip), vehicle: other).
As to `CN1CC[C@]23c4c5ccc(O)c4O[C@H]2C(=O)CC[C@H]3[C@H]1C5`, the T/C by setting is: under setting [19], 96 % of control; under setting [20], 100 % of control and 103 % of control; under setting [21], 96 % of control and 100 % of control; (dose: 32.0 mg/kg/injection, schedule: Q01DX010 (ip), vehicle: saline) 96 % of control and 100 % of control.
As for `CS(=O)(=O)OCCCl`, the T/C (dose: 9.4 mg/kg/injection, schedule: Q01DX010 (ip), vehicle: saline) was 100 % of control; the T/C under setting [22] is 100 % of control and 103 % of control; the T/C under setting [23] is 100 % of control and 106 % of control; the T/C under setting [24] was 96 % of control and 103 % of control.
As to `CC(=O)N(C)C`, the T/C runs as follows: under setting [1], 87 % of control; under setting [3], 88 % of control; under setting [4], 100 % of control.
Consider `O=c1[nH]cc(F)c(=O)[nH]1`, for which the T/C is, setting by setting: under setting [16], 161 % of control; under setting [13], 179 % of control and 180 % of control; under setting [14], 193 % of control and 246 % of control.
On to `CCOC(N)=O`, for which the T/C under setting [2] is 103 % of control and 117 % of control; the T/C under setting [3] was 106 % of control and 111 % of control.
Consider `CCOC(=O)c1[nH]c2ccccc2c1CN(CCCl)CCCl`, for which the T/C under setting [13] was 116 % of control.
As for `C[C@]12C=CC(=O)C=C1CC[C@@H]1[C@@H]2[C@@H](O)C[C@@]2(C)[C@H]1CC[C@]2(O)C(=O)CO`, the T/C was 123 % of control (dose: 12.5 mg/kg/injection, schedule: Q01DX010 (sc), vehicle: steriod suspending solution); 116 % of control (dose: 25.0 mg/kg/injection, schedule: Q01DX010 (sc), vehicle: steriod suspending solution); 110 % of control (dose: 50.0 mg/kg/injection, schedule: Q01DX010 (sc), vehicle: steriod suspending solution); 116 % of control (dose: 100.0 mg/kg/injection, schedule: Q01DX010 (sc), vehicle: steriod suspending solution).
Regarding `CC1CN1P(=S)(N1CC1C)N1CC1C` (stereo not drawn), the T/C runs as follows: under setting [15], 103 % of control; (dose: 2.5 mg/kg/injection, schedule: Q01DX010 (ip), vehicle: saline) 93 % of control and 115 % of control; under setting [16], 100 % of control and 111 % of control; under setting [13], 111 % of control and 120 % of control; under setting [14], 115 % of control.
With `O=C(Nc1ccc(NC2=NCCN2)cc1)c1ccc(C(=O)Nc2ccc(NC3=NCCN3)cc2)cc1`, the T/C reads like this: under setting [18], 113 % of control and 121 % of control; under setting [20], 207 % of control; under setting [21], 96 % of control.
In the case of `CN(C)c1nc(N(C)C)nc(N(C)C)n1`, the T/C under setting [22] is 96 % of control and 100 % of control; the T/C under setting [23] is 100 % of control; the T/C under setting [24] was 100 % of control; the T/C (dose: 150.0 mg/kg/injection, schedule: Q01DX010 (ip), vehicle: saline) was 100 % of control and 103 % of control.
Take `CCCSc1ncnc2nc[nH]c12`: the T/C was 93 % of control and 96 % of control under setting [25]; 93 % of control and 96 % of control under setting [2].
As for `CCCCNc1ncnc2c1cnn2C`, the T/C reads like this: under setting [26], 103 % of control and 108 % of control; under setting [25], 102 % of control and 103 % of control; under setting [1], 100 % of control and 123 % of control.
Consider `Nc1c(Br)cc2c(c1Br)Cc1cc([N+](=O)[O-])ccc1-2`, for which the T/C by setting is: under setting [26], 100 % of control; under setting [25], 107 % of control and 118 % of control; under setting [1], 107 % of control and 111 % of control; under setting [2], 111 % of control and 114 % of control; under setting [3], 103 % of control.
On to `CSc1ncnc2nc[nH]c12`, for which the T/C under setting [8] is 100 % of control and 103 % of control; the T/C under setting [27] was 96 % of control and 115 % of control; the T/C under setting [28] is 103 % of control; the T/C under setting [29] is 100 % of control and 115 % of control.
In the case of `Nc1nc(=S)c2ncn(C3OC(CO)C(O)C3O)c2[nH]1` (stereo not drawn), the T/C by setting is: (dose: 0.25 mg/kg/injection, schedule: Q01DX010 (ip), vehicle: saline) 100 % of control; under setting [12], 106 % of control; under setting [17], 102 % of control and 115 % of control; under setting [18], 100 % of control.
As to `CS(=O)(=O)OCC(O)C(O)C(O)C(O)COS(C)(=O)=O` (stereo not drawn), the T/C runs as follows: under setting [27], 100 % of control; under setting [28], 103 % of control; under setting [29], 103 % of control; (dose: 400.0 mg/kg/injection, schedule: Q01DX010 (ip), vehicle: saline) 114 % of control.
